Several values for one entry are separate records, joined by “and”; a condition that tells them apart may be missing. Identical values can stand only once.
Experiments:
Format in all cases: in vivo
[1] = tested on: cisplatin-induced neuropathic pain model in SD rats; assay: von Frey mechanical allodynia, cisplatin-induced neuropathic pain model; settings: for Mean value of mechanical paw withdrawal threshold: s.c.
Experimental: (§1) All female SD rats were measured on day −5 (D-5) and day −4 (D-4) for basal values of von Frey mechanical allodynia and acetone cold allodynia (the day on formally establishing the model with paclitaxel administration was recorded as DO). SD rats were randomly divided into 5 groups according to body weight, which were blank control group, vehicle control (Vehicle control), s.c., D-3/D3/D9 group, DS002 0.1 mg/kg, s.c., D-3/D3/D9 group, DS002 0.5 mg/kg, s.c., D-3/D3/D9 group, DS002 2.5 mg/kg, s.c., D-3/D3/D9 group, respectively. Except for the blank control group, the other groups of animals were injected intraperitoneally with a chemotherapeutic agent solution on DO, D2, D4 and D6, respectively, to establish a chemotherapeutic agent-induced neuropathic pain model in SD rats. Wherein, von Frey is a stimulating material used in the measurement method of mechanical stimulation pain threshold; acetone is a stimulating substance used in the measurement method of cold pain threshold.
(§2) Except for the blank control group, the other four groups were administered subcutaneously with DS002 on D-3, D3 and D9, respectively, and the von Frey echanical allodynia and acetone cold allodynia were measured on D7, D14 and D8, D15, respectively. The mechanical paw withdrawal threshold and the score and frequency of acetone-induced foot withdrawal behavior at the corresponding time point were recorded (for testing and calculation methods, see Yoon et al., pain, 59(3), 369-376. & Flatters et al., pain, 2004, 109 (1-2):150-161).
(§3) With reference to the above-mentioned experimental method and Example 1, except for the blank control group, the animals of other groups were injected with a cisplatin solution (4 mg/kg) in the tail veins on DO and D6, respectively, to establish a cisplatin-induced neuropathic pain model in SD rats, namely the CIPN pain model.
(§4) The basal values of the mechanical allodynia and cold allodynia were measured on day 5 (D-5) and day 4 (D-4) before modeling. On day 3 (D-3), the normal rats were divided into 4 groups by random block method and administered according to their body weight. The average weight of animals in each group after grouping was about 250 g. As for the animals of blank control group, vehicle control, s.c., D-3/D3/D9/D16 group, test sample DS002, 0.02 mg/kg, s.c., D-3/D3/D9/D16 group and test sample DS002, 0.5 mg/kg, s.c., D-3/D3/D9/D16 group, the basal values of mechanical paw withdrawal threshold were 26.00±0.00 g, 23.95±1.63 g, 23.50±1.68 g and 22.77±1.71 g, respectively; the basal values of acetone-induced foot withdrawal behavior total score were 0.50±0.34, 0.55±0.31, 0.27±0.19 and 0.55±0.28, respectively; the basal values of the response frequency were 6.00±4.27%, 7.27±4.07%, 3.64±2.44% and […], respectively.

[2] = tested on: paclitaxel-induced neuropathic pain model in SD rats; assay: von Frey mechanical allodynia, paclitaxel-induced neuropathic pain model; settings: for Mean value of mechanical paw withdrawal threshold: s.c., D-3/D3/D9
Experimental: as §1, §2
(§5) The above experimental method was used, except for the blank control group, the other groups of animals were injected intraperitoneally with a chemotherapeutic agent solution (4 mg/kg) on DO, D2, D4 and D6, respectively, to establish a paclitaxel-induced neuropathic pain model in SD rats, namely the CIPN pain model.

[3] = tested on: vincristine-induced neuropathic pain model in SD rats; assay: acetone cold allodynia, vincristine-induced neuropathic pain model; settings: s.c.
Experimental: as §1, §2
(§6) With reference to the above-mentioned experimental method and Example 1, except for the blank control group, the other groups of animals were injected intraperitoneally with a vincristine solution (0.1 mg/kg) from DO to D9, respectively, to establish a vincristine-induced neuropathic pain model in SD rats, namely, the CIPN pain model.

[4] = tested on: paclitaxel-induced neuropathic pain model in SD rats; assay: acetone cold allodynia, paclitaxel-induced neuropathic pain model; settings: s.c.
Experimental: as §1, §2, §5

[5] = tested on: vincristine-induced neuropathic pain model in SD rats; assay: von Frey mechanical allodynia, vincristine-induced neuropathic pain model; settings: for Mean value of mechanical paw withdrawal threshold: s.c.
Experimental: as §1, §2, §6

[6] = tested on: cisplatin-induced neuropathic pain model in SD rats; assay: acetone cold allodynia, cisplatin-induced neuropathic pain model; settings: for Mean value of response frequency of cold allodynia / Mean value of acetone-induced foot withdrawal behavior total score: s.c.
Experimental: as §2, §3, §4

[7] = 0.1 mg/kg, D-3/D3/D9, D-4 basal value before administration
[8] = 0.5 mg/kg, D-3/D3/D9, D-4 basal value before administration
[9] = 2.5 mg/kg, D-3/D3/D9, D-4 basal value before administration
[10] = 0.5 mg/kg, D-3/D3/D9/D16, D22, listed as D5002

DS002: humanized recombinant monoclonal antibody targeting nerve growth factor, IgG1 subtype, kappa light chain; heavy/light chain SEQ ID NO:3 and 4
Mean value of mechanical paw withdrawal threshold ([1]; 0.02 mg/kg, D-3/D3/D9/D16, D7): 8.87 ± 1.98 g
Mean value of mechanical paw withdrawal threshold ([1]; 0.02 mg/kg, D-3/D3/D9/D16, D14): 7.22 ± 0.77 g
Mean value of mechanical paw withdrawal threshold ([1]; 0.02 mg/kg, D-3/D3/D9/D16, D21): 14.22 ± 2.63 g
Mean value of mechanical paw withdrawal threshold ([1]; 0.02 mg/kg, D-3/D3/D9/D16, D-5 basal value before administration): 23.50 ± 1.68 g
Mean value of mechanical paw withdrawal threshold ([1]; 0.5 mg/kg, D-3/D3/D9/D16, D7): 7.62 ± 1.18 g
Mean value of mechanical paw withdrawal threshold ([1]; 0.5 mg/kg, D-3/D3/D9/D16, D14): 10.73 ± 1.60 g
Mean value of mechanical paw withdrawal threshold ([1]; 0.5 mg/kg, D-3/D3/D9/D16, D21): 16.37 ± 2.36 g
Mean value of mechanical paw withdrawal threshold ([1]; 0.5 mg/kg, D-3/D3/D9/D16, D-5 basal value before administration): 22.77 ± 1.71 g
mechanical paw withdrawal threshold of rats compared with the Vehicle control ([1]; summary in words): significantly increased
Mean value of mechanical paw withdrawal threshold ([2]; 0.1 mg/kg, D7, paclitaxel model): 8.90 ± 1.20 g
Mean value of mechanical paw withdrawal threshold ([2]; 0.1 mg/kg, D14, paclitaxel model): 10.55 ± 1.04 g
Mean value of mechanical paw withdrawal threshold ([2]; 0.1 mg/kg, D-5 basal value before administration, paclitaxel model): 13.48 ± 1.03 g
Mean value of mechanical paw withdrawal threshold ([2]; 0.5 mg/kg, D7, paclitaxel model): 10.40 ± 1.33 g
Mean value of mechanical paw withdrawal threshold ([2]; 0.5 mg/kg, D14, paclitaxel model): 10.94 ± 1.16 g
Mean value of mechanical paw withdrawal threshold ([2]; 0.5 mg/kg, D-5 basal value before administration, paclitaxel model): 13.25 ± 0.98 g
Mean value of mechanical paw withdrawal threshold ([2]; 2.5 mg/kg, D7, paclitaxel model): 7.74 ± 1.19 g
Mean value of mechanical paw withdrawal threshold ([2]; 2.5 mg/kg, D14, paclitaxel model): 12.30 ± 0.94 g
Mean value of mechanical paw withdrawal threshold ([2]; 2.5 mg/kg, D-5 basal value before administration, paclitaxel model): 13.50 ± 0.82 g
pain threshold ([2]; 0.1-2.5 mg/kg subcutaneously every 6 days for 3 consecutive times, paclitaxel-induced rat neuropathic pain model, summary in words): preventatively increased
mechanical paw withdrawal threshold of rats compared with the Vehicle control ([2]; paclitaxel model, summary in words): significantly increased
Mean value of response frequency of cold allodynia ([3]; 0.1 mg/kg, D-3/D3/D9, D8): 58.00±6.96% and 58.00%
Mean value of acetone-induced foot withdrawal behavior total score ([3]; 0.1 mg/kg, D-3/D3/D9, D15): 3.00
Mean value of response frequency of cold allodynia ([3]; 0.1 mg/kg, D-3/D3/D9, D15): 42.00%
Mean value of acetone-induced foot withdrawal behavior total score [3, 7]: 0.10
Mean value of response frequency of cold allodynia [3, 7]: 2.00%
Mean value of response frequency of cold allodynia ([3]; 0.5 mg/kg, D-3/D3/D9, D8): 44.00±7.77% and 44.00%
Mean value of acetone-induced foot withdrawal behavior total score ([3]; 0.5 mg/kg, D-3/D3/D9, D15): 2.80
Mean value of response frequency of cold allodynia ([3]; 0.5 mg/kg, D-3/D3/D9, D15): 34.00%
Mean value of acetone-induced foot withdrawal behavior total score [3, 8]: 0.30
Mean value of response frequency of cold allodynia [3, 8]: 4.00%
Mean value of response frequency of cold allodynia ([3]; 2.5 mg/kg, D-3/D3/D9, D8): 44.00±4.99% and 44.00%
Mean value of acetone-induced foot withdrawal behavior total score ([3]; 2.5 mg/kg, D-3/D3/D9, D15): 1.80
Mean value of response frequency of cold allodynia ([3]; 2.5 mg/kg, D-3/D3/D9, D15): 24.00%
Mean value of acetone-induced foot withdrawal behavior total score [3, 9]: 0.30
Mean value of response frequency of cold allodynia [3, 9]: 4.00%
Mean value of acetone-induced foot withdrawal response score ([4]; 0.1 mg/kg, D-3/D3/D9, D8): 3.70
Mean value of response frequency of cold allodynia ([4]; 0.1 mg/kg, D-3/D3/D9, D8): 63.50%
Mean value of acetone-induced foot withdrawal response score ([4]; 0.1 mg/kg, D-3/D3/D9, D15): 1.80
Mean value of response frequency of cold allodynia ([4]; 0.1 mg/kg, D-3/D3/D9, D15): 33.40%
Mean value of acetone-induced foot withdrawal response score [4, 7]: 0.60
Mean value of response frequency of cold allodynia [4, 7]: 13.40%
Mean value of acetone-induced foot withdrawal response score ([4]; 0.5 mg/kg, D-3/D3/D9, D8): 2.50
Mean value of response frequency of cold allodynia ([4]; 0.5 mg/kg, D-3/D3/D9, D8): 50.10%
Mean value of acetone-induced foot withdrawal response score ([4]; 0.5 mg/kg, D-3/D3/D9, D15): 1.00
Mean value of response frequency of cold allodynia ([4]; 0.5 mg/kg, D-3/D3/D9, D15): 23.20%
Mean value of acetone-induced foot withdrawal response score [4, 8]: 0.50
Mean value of response frequency of cold allodynia [4, 8]: 13.30%
Mean value of acetone-induced foot withdrawal response score ([4]; 2.5 mg/kg, D-3/D3/D9, D8): 3.30
Mean value of response frequency of cold allodynia ([4]; 2.5 mg/kg, D-3/D3/D9, D8): 70.0%
Mean value of acetone-induced foot withdrawal response score ([4]; 2.5 mg/kg, D-3/D3/D9, D15): 0.70
Mean value of response frequency of cold allodynia ([4]; 2.5 mg/kg, D-3/D3/D9, D15): 19.90%
Mean value of acetone-induced foot withdrawal response score [4, 9]: 0.90
Mean value of response frequency of cold allodynia [4, 9]: 19.90%
Mean value of mechanical paw withdrawal threshold ([5]; 0.1 mg/kg, D-3/D3/D9, D7): 7.02 ± 1.05 g
Mean value of mechanical paw withdrawal threshold ([5]; 0.1 mg/kg, D-3/D3/D9, D14): 9.76 ± 1.10 g
Mean value of mechanical paw withdrawal threshold ([5]; 0.1 mg/kg, D-3/D3/D9, D-5 basal value before administration): 15.00 ± 0.00 g
Mean value of mechanical paw withdrawal threshold ([5]; 0.5 mg/kg, D-3/D3/D9, D7): 8.20 ± 1.78 g
Mean value of mechanical paw withdrawal threshold ([5]; 0.5 mg/kg, D-3/D3/D9, D14): 11.00 ± 0.94 g
Mean value of mechanical paw withdrawal threshold ([5]; 0.5 mg/kg, D-3/D3/D9, D-5 basal value before administration): 15.00 ± 0.00 g
Mean value of mechanical paw withdrawal threshold ([5]; 2.5 mg/kg, D-3/D3/D9, D7): 8.43 ± 0.92 g
Mean value of mechanical paw withdrawal threshold ([5]; 2.5 mg/kg, D-3/D3/D9, D14): 13.31 ± 0.76 g
Mean value of mechanical paw withdrawal threshold ([5]; 2.5 mg/kg, D-3/D3/D9, D-5 basal value before administration): 14.16 ± 0.60 g
mechanical paw withdrawal threshold of rats compared with the Vehicle control ([5]; summary in words): significantly increased
Mean value of response frequency of cold allodynia ([6]; 0.02 mg/kg, D-3/D3/D9/D16, D8): 7.27±4.07% and 7.27%
Mean value of response frequency of cold allodynia ([6]; 0.02 mg/kg, D-3/D3/D9/D16, D15): 16.36±5.92% and 16.36%
Mean value of response frequency of cold allodynia ([6]; 0.02 mg/kg, D-3/D3/D9/D16, D22): 9.09±4.15% and 9.09%
Mean value of response frequency of cold allodynia ([6]; 0.02 mg/kg, D-3/D3/D9/D16, D-4 basal value before administration): 3.64±2.44% and 3.64%
Mean value of response frequency of cold allodynia ([6]; 0.5 mg/kg, D-3/D3/D9/D16, D8): 7.27±4.07% and 7.27%
Mean value of response frequency of cold allodynia ([6]; 0.5 mg/kg, D-3/D3/D9/D16, D15): 7.27±4.07% and 7.27%
Mean value of acetone-induced foot withdrawal behavior total score ([6]; 0.5 mg/kg, D-3/D3/D9/D16, D22): 0.73
Mean value of response frequency of cold allodynia ([6]; 0.5 mg/kg, D-3/D3/D9/D16, D22): 10.91%
Mean value of acetone-induced foot withdrawal behavior total score [6, 10]: 0.73±0.30
Mean value of response frequency of cold allodynia [6, 10]: 10.91±4.15%
Mean value of response frequency of cold allodynia ([6]; 0.5 mg/kg, D-3/D3/D9/D16, D-4 basal value before administration): 5.45±2.82% and 5.45%
cold pain threshold of the rats compared with the vehicle control ([6]; summary in words): not significantly improved

— patent publication US20240009304A1, “USE OF NGF ANTIBODY IN CIPN PAIN” (Dartsbio Pharmaceuticals Ltd., priority 2020, published 2024)
